Broadly, the Ki is a dissociation constant, usually derived from enzyme kinetics or from competition with a known ligand. A lower Ki goes with tighter binding.

Our source for the Ki values is patent US20250115583A1, “BICYCLIC INDAZOLE GLUCOCORTICOID RECEPTOR ANTAGONISTS” (Corcept Therapeutics Incorporated, priority 2021, published 2025).

The assay has as its target glucocorticoid receptor (Homo sapiens (Human), UniProt P04150). Kind of assay: HepG2 TAT assay: inhibition of dexamethasone-induced tyrosine aminotransferase (TAT) activity. Format: cell-based. The settings on record: HepG2 cells, challenge of 100 nM dexamethasone, 18-24 hr; IC50 converted to Ki by Cheng and Prusoff equation. The method, then:
Glucocorticoid mediated activation of TAT occurs by transactivation of glucocorticoid response elements in the TAT promoter by glucocorticoid receptor-agonist complex.
HepG2 cells were cultured using MEME media supplemented with 10% (v/v) foetal bovine serum; 2 mM L-glutamine and 1% (v/v) NEAA at 37° C., 5%/95% (v/v) CO2/air.
Compounds were serially half log diluted in 100% (v/v) dimethylsulphoxide from a 10 mM stock.
HepG2 cells were then lysed with 30 μl of cell lysis buffer containing a protease inhibitor cocktail for 15 minutes at 4° C. […] After 2 hours incubation at 37° C. the reaction was terminated by the addition of 15 μl of 10M aqueous potassium hydroxide solution, and the plates incubated for a further 30 minutes at 37° C.
[compound] and fitting the data to a 4 parameter logistic equation.

Molecules are shown by their SMILES.

glucocorticoid receptor, sequence (P04150 whole entry): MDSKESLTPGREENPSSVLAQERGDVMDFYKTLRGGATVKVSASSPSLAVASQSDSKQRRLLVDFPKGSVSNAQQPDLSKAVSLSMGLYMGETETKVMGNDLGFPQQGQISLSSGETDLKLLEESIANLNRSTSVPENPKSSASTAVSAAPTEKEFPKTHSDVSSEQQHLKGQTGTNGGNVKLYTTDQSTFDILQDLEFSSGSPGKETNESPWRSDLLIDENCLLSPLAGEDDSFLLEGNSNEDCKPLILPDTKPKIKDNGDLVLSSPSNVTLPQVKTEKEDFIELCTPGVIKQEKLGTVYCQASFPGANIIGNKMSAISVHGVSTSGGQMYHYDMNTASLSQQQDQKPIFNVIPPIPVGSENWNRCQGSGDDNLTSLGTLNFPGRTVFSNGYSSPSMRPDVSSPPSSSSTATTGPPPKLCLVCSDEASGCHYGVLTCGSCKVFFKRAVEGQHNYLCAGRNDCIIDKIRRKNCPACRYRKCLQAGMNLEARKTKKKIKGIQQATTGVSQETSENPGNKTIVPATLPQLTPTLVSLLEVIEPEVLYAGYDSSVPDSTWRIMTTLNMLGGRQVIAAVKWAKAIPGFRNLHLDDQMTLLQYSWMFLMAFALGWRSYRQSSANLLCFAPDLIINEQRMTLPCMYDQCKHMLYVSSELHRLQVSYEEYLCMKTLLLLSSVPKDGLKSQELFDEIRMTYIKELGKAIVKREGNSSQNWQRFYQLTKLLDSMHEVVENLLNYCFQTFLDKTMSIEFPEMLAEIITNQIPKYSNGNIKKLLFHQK

As to `Cc1cc2c(cnn2-c2ccc(F)cc2)cc1[C@@]12CN(C(=O)c3ccc(C#N)cc3)C[C@@H]1[C@H]2c1ccccc1` (stereo in doubt) [Example 115, 4-(1-(1-(4-fluorophenyl)-6-methyl-1H-indazol-5-yl)-6-phenyl-3-azabicyclo[3.1.0]hexane-3-carbonyl)benzonitrile], the affinity, expressed as Ki, was 36 nM.
As for `Cc1cc2c(cnn2-c2ccc(F)cc2)cc1[C@@]12CN(C(=O)c3nccs3)C[C@@H]1[C@H]2c1ccccc1` (stereo in doubt) [Example 158, (1-(1-(4-fluorophenyl)-6-methyl-1H-indazol-5-yl)-6-phenyl-3-azabicyclo[3.1.0]hexan-3-yl)(thiazol-2-yl)methanone], the affinity, expressed as Ki, was 12 nM.
The same measure for `Cc1cc2c(cnn2-c2ccc(F)cc2)cc1[C@@]12CN(C(=O)c3ccccn3)C[C@@H]1[C@H]2c1ccccc1` (stereo in doubt) [Example 116, (1-(1-(4-fluorophenyl)-6-methyl-1H-indazol-5-yl)-6-phenyl-3-azabicyclo[3.1.0]hexan-3-yl)(pyridin-2-yl)methanone]: 31 nM; for `COC1(c2ccccc2)CC2CN(S(C)(=O)=O)CC2(c2cc3cnn(-c4ccc(F)cc4)c3cc2C)C1` (centres unmarked) [Example 13]: 78 nM.
The same measure for `COC1(c2ccccc2)CC2CN(S(=O)(=O)c3cnn(C)c3)CC2(c2cc3cnn(-c4ccc(F)cc4)c3cc2C)C1` (centres unmarked) [Example 11, 1-(4-Fluorophenyl)-5-(5-methoxy-2-((1-methyl-1H-pyrazol-4-yl)sulfonyl)-5-phenylhexahydrocyclopenta[c]pyrrol-3a(1H)-yl)-6-methyl-1H-indazole]: 33 nM.
`Cc1cc2c(cnn2-c2ccc(F)cc2)cc1[C@]12CN(S(=O)(=O)c3cnn(C)n3)C[C@H]1[C@@H]2C(=O)NC1CCC1` [Example 60] showed a Ki of 200 nM.
The result for `Cc1cccc(NC(=O)[C@H]2[C@@H]3CN(S(=O)(=O)c4cnn(C)n4)C[C@@]32c2cc3cnn(-c4ccc(F)cc4)c3cc2C)c1` [Example 63] reads 88 nM.
The same measure for `Cc1cc2c(cnn2-c2ccc(F)cc2)cc1[C@]12CN(S(=O)(=O)N3CCOCC3)C[C@H]1[C@@H]2c1ccccc1` [Example 87]: 20 nM.
The same measure for `Cc1cc2c(cnn2-c2ccc(F)cc2)cc1[C@@]12CN(S(=O)(=O)c3cnn(C)n3)C[C@@H]1[C@H]2c1nc2ccccc2o1` [Example 134, 2-(1-(1-(4-fluorophenyl)-6-methyl-1H-indazol-5-yl)-3-((2-methyl-2H-1,2,3-triazol-4-yl)sulfonyl)-3-azabicyclo[3.1.0]hexan-6-yl)benzo[d]oxazole]: 55 nM; for `CC(=O)N1C[C@H]2[C@H](C(=O)Nc3ccc(F)cn3)[C@@]2(c2cc3cnn(-c4ccc(F)cc4)c3cc2C)C1` (stereo in doubt) [Example 68, 3-acetyl-1-(1-(4-fluorophenyl)-6-methyl-1H-indazol-5-yl)-N-(5-fluoropyridin-2-yl)-3-azabicyclo[3.1.0]hexane-6-carboxamide]: 90 nM; for `Cc1cc2c(cnn2-c2ccc(F)cc2)cc1C12CN(S(=O)(=O)c3cnn(C)n3)CC1C2COc1ccc(Cl)cc1` (single isomer, unassigned) [Example 52, 5-(6-((4-chlorophenoxy)methyl)-3-((2-methyl-2H-1,2,3-triazol-4-yl)sulfonyl)-3-azabicyclo[3.1.0]hexan-1-yl)-1-(4-fluorophenyl)-6-methyl-1H-indazole]: 380 nM.
Take `Cc1cc2c(cnn2-c2ccc(F)cc2)cc1[C@@]12CN(S(=O)(=O)N(C)C)C[C@@H]1[C@H]2c1ccccc1` [Example 108]: the affinity, expressed as Ki, was 16 nM.
The same measure for `Cc1cc2c(cnn2-c2ccc(F)cc2)cc1C12CC(Oc3cccnc3)CC1CN(S(C)(=O)=O)C2` (centres unmarked) [Example 42]: 260 nM.
The result for `CNC(=O)N1C[C@@H]2[C@@H](c3ccccc3)[C@]2(c2cc3cnn(-c4ccc(F)cc4)c3cc2C)C1` (single isomer, unassigned) [Example 124, 1-(1-(4-fluorophenyl)-6-methyl-1H-indazol-5-yl)-N-methyl-6-phenyl-3-azabicyclo[3.1.0]hexane-3-carboxamide] reads 120 nM.
The same measure for `COCCOC(=O)N1C[C@@H]2[C@@H](c3ccccc3)[C@]2(c2cc3cnn(-c4ccc(F)cc4)c3cc2C)C1` (single isomer, unassigned) [Example 123, 2-methoxyethyl 1-(1-(4-fluorophenyl)-6-methyl-1H-indazol-5-yl)-6-phenyl-3-azabicyclo[3.1.0]hexane-3-carboxylate]: 27 nM; for `Cc1cc2c(cnn2-c2ccc(F)cc2)cc1[C@]12CN(C(=O)c3ccccc3)C[C@H]1[C@H]2c1ccccn1` (stereo in doubt) [Example 186, (1-(1-(4-fluorophenyl)-6-methyl-1H-indazol-5-yl)-6-(pyridin-2-yl)-3-azabicyclo[3.1.0]hexan-3-yl)(phenyl)methanone]: 630 nM; for `Cc1ccnc(C(=O)N2C[C@@H]3[C@@H](c4ccccc4)[C@]3(c3cc4cnn(-c5ccc(F)cc5)c4cc3C)C2)c1` (single isomer, unassigned) [Example 146, (1-(1-(4-fluorophenyl)-6-methyl-1H-indazol-5-yl)-6-phenyl-3-azabicyclo[3.1.0]hexan-3-yl)(4-methylpyridin-2-yl)methanone]: 14 nM.
In the case of `Cc1cc2c(cnn2-c2ccc(F)cc2)cc1[C@@]12CN(C(=O)c3cccc(C(F)F)c3)C[C@@H]1[C@H]2c1ccccc1` (stereo in doubt) [Example 143, (3-(difluoromethyl)phenyl)(1-(1-(4-fluorophenyl)-6-methyl-1H-indazol-5-yl)-6-phenyl-3-azabicyclo[3.1.0]hexan-3-yl)methanone], the affinity corresponds to a Ki of 25 nM.
In the case of `Cc1cc2c(cnn2-c2ccc(F)cc2)cc1[C@@]12CN(S(=O)(=O)c3cncs3)C[C@@H]1[C@H]2c1ccccc1` [Example 91], the affinity, expressed as Ki, was 22 nM.
The result for `Cc1cc2c(cnn2-c2ccc(F)cc2)cc1[C@@]12CN(S(=O)(=O)N3CCCCC3)C[C@@H]1[C@H]2c1ccccc1` [Example 102] reads 26 nM; that for `COc1cccc(C(=O)N2C[C@@H]3[C@@H](c4ccccc4)[C@]3(c3cc4cnn(-c5ccc(F)cc5)c4cc3C)C2)c1` (single isomer, unassigned) [Example 141, (1-(1-(4-fluorophenyl)-6-methyl-1H-indazol-5-yl)-6-phenyl-3-azabicyclo[3.1.0]hexan-3-yl)(3-methoxyphenyl)methanone], 19 nM.
The same measure for `CCn1ncc(S(=O)(=O)N2C[C@H]3[C@H](c4ccccc4)[C@@]3(c3cc4cnn(-c5ccc(F)cc5)c4cc3C)C2)n1` [Example 74]: 15 nM; for `Cc1cc2c(cnn2-c2ccc(F)cc2)cc1[C@@]12CN(S(C)(=O)=O)C[C@@H]1[C@H]2c1ccccc1` [Example 77]: 39 nM; for `Cc1ccc(C(=O)N2C[C@@H]3[C@@H](c4ccccc4)[C@]3(c3cc4cnn(-c5ccc(F)cc5)c4cc3C)C2)nc1` (single isomer, unassigned) [Example 151, (1-(1-(4-fluorophenyl)-6-methyl-1H-indazol-5-yl)-6-phenyl-3-azabicyclo[3.1.0]hexan-3-yl)(5-methylpyridin-2-yl)methanone]: 28 nM.
`COC1CC2CN(S(C)(=O)=O)CC2(c2cc3cnn(-c4ccc(F)cc4)c3cc2C)C1` (centres unmarked) [Example 34, 1-(4-fluorophenyl)-5-(5-methoxy-2-(methylsulfonyl)hexahydrocyclopenta[c]pyrrol-3a(1H)-yl)-6-methyl-1H-indazole] gave an inhibitory constant (Ki) of 800 nM.
The result for `CC(=O)N1C[C@@H]2[C@@H](c3ccccc3)[C@]2(c2cc3cnn(-c4ccc(F)cc4)c3cc2C)C1` (single isomer, unassigned) [Example 111, 1-(1-(1-(4-fluorophenyl)-6-methyl-1H-indazol-5-yl)-6-phenyl-3-azabicyclo[3.1.0]hexan-3-yl)ethan-1-one] reads 52 nM; that for `COCCn1cc(S(=O)(=O)N2C[C@H]3[C@H](c4ccccc4)[C@@]3(c3cc4cnn(-c5ccc(F)cc5)c4cc3C)C2)cn1` [Example 79], 33 nM.
The same measure for `Cc1cc2c(cnn2-c2ccc(F)cc2)cc1[C@@]12CN(C(=O)c3cnn(C)c3)C[C@@H]1[C@H]2c1ccccc1` (single isomer, unassigned) [Example 129, (1-(1-(4-fluorophenyl)-6-methyl-1H-indazol-5-yl)-6-phenyl-3-azabicyclo[3.1.0]hexan-3-yl)(1-methyl-1H-pyrazol-4-yl)methanone]: 37 nM; for `CO[C@@]1(c2ccccc2)C[C@H]2CN(S(=O)(=O)c3cnn(C)c3)C[C@@]2(c2cc3cnn(-c4ccc(F)cc4)c3cc2C)C1` [Example 6, 1-(4-fluorophenyl)-5-((3aS,5S,6aR)-5-methoxy-2-((1-methyl-1H-pyrazol-4-yl)sulfonyl)-5-phenylhexahydrocyclopenta[c]pyrrol-3a(1H)-yl)-6-methyl-1H-indazole]: 44 nM; for `CCCn1cc(S(=O)(=O)N2C[C@@H]3C[C@](OC)(c4ccccc4)C[C@]3(c3cc4cnn(-c5ccc(F)cc5)c4cc3C)C2)cn1` [Example 22]: 32 nM.
The same measure for `Cc1cc2c(cnn2-c2ccc(F)cc2)cc1[C@@]12CN(S(=O)(=O)N3CC(C#N)C3)C[C@@H]1[C@H]2c1ccccc1` [Example 103]: 27 nM; for `Cc1cc2c(cnn2-c2ccc(F)cc2)cc1[C@@]12CN(C(=O)c3ccn(C)n3)C[C@@H]1[C@H]2c1ccccc1` (stereo in doubt) [Example 154, (1-(1-(4-fluorophenyl)-6-methyl-1H-indazol-5-yl)-6-phenyl-3-azabicyclo[3.1.0]hexan-3-yl)(1-methyl-1H-pyrazol-3-yl)methanone]: 16 nM.
